The text below walks through data of ChEMBL document CHEMBL1201862, “PubChem BioAssay data set” (2004).

In one assay the target is Cytochrome P450 2C9 (Homo sapiens, UniProt P11712).
In a further assay the target is Ephrin type-A receptor 4 (Mus musculus, UniProt Q03137). In words: inhibitors of EphA4 binding to KYL peptide, primary screen, biochemical, colorimetric, mouse EphA4 (AID 689). It counts as functional.
A short description of assay [1]: inhibitors of HIV Env-driven cell fusion, dose response, cherry-pick (AID 652057). Type of assay: functional, cell-based.
Assay [2] concerns the target T1, High affinity choline transporter 1 (Homo sapiens, UniProt Q9GZV3).
T1 sequence (Q9GZV3 whole entry): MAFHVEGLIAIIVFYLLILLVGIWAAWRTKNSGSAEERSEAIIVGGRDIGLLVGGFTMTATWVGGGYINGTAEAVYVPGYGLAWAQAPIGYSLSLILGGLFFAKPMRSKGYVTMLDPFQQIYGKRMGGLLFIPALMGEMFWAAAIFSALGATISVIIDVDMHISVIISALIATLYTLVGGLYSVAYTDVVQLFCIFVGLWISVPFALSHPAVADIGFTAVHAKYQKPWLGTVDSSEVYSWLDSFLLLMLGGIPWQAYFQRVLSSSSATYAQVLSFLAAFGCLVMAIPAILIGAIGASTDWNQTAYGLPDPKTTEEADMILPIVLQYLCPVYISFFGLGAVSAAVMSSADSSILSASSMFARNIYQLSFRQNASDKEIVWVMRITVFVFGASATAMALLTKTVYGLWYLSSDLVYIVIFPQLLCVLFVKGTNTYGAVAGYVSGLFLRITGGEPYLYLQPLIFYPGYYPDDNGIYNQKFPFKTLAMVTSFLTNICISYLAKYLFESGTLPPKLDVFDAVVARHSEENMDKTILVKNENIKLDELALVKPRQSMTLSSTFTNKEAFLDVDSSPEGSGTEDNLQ
In words: CHT inhibitors, dose response, cell-based, 5-point CRC, membrane potential dye (AID 504840). Type of assay: functional.

Assay [3] is described as follows: inhibitors of clade B AD8 Env fusion, dose response, cell-based, cherry-pick (AID 652062).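 Also: luciferase signal from cell-cell fusion driven by HIV-1 clade B AD8 Env; potency is for inhibitors of fusion seen as a drop in luminescence.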 Type of assay: functional.
A short description of assay [4]: off-target signal loss in HeLa-CEM21 co-culture – HeLa F-luc CTL cells, cherry-picked, counter-screen for HIV-1 Env fusion inhibitor project, dose response (AID 652040).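 Also: potency for signal decrease marking cytotoxic or nonspecific inhibition.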 Type of assay: functional, cell-based.
The nature of assay [5]: HIV-1 Env-mediated cell fusion inhibitors, dose response, CCR5-tropic Env (AID 2279). Type of assay: functional.
The target in a further assay is T2, Aminopeptidase N (Plasmodium falciparum FcB1/Columbia, UniProt O96935).
T2 sequence (O96935 whole entry): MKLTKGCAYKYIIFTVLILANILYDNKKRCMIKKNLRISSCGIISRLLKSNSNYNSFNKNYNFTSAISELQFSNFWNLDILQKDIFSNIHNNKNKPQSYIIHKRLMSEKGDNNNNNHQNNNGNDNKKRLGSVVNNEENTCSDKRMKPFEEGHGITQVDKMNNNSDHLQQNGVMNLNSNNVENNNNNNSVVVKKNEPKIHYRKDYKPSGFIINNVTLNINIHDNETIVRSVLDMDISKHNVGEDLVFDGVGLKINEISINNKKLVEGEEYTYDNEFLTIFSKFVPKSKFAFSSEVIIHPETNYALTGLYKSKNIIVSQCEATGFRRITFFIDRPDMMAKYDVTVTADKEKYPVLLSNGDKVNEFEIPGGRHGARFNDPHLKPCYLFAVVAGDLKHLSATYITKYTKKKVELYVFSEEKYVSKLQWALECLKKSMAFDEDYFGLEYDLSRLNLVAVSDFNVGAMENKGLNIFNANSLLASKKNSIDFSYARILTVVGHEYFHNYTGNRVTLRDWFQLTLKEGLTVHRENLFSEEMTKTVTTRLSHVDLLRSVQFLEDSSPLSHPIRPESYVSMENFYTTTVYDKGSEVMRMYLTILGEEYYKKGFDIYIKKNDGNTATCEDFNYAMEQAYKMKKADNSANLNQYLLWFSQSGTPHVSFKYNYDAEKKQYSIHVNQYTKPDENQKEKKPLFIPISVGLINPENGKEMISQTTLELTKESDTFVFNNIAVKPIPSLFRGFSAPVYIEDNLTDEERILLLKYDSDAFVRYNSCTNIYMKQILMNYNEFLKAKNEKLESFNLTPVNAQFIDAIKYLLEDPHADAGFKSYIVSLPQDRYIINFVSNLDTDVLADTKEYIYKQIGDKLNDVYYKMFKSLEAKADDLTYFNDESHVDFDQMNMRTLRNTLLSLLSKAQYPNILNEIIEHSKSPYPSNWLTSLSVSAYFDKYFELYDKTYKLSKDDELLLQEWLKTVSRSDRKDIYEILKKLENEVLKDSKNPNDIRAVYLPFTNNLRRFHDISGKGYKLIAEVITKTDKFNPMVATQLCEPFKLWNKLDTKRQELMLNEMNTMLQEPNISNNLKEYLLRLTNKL
In words: P. falciparum M1AAP inhibitors, biochemical, fluorogenic H-Leu-NHMec substrate, 1536-well (AID 1445). Further details: species or system Plasmodium falciparum 3D7, 3D7.

Assay [6] can be described thus: Luminescence Cell-Based Dose Retest to Confirm Inhibitors of Cancer Stem Cells. [Related pubchem assays (depositor defined):AID2717, AID2721]. Type of assay: functional. The following applies: Homo sapiens.
Another assay concerns H4. In words: Luminescence Cell-Based Dose Response HTS to Identify Activators of 5'UTR Stem-Loop Driven Prion Protein mRNA Translation in H4 Neuroglioblastoma Cells. [Related pubchem assays: 1829 (Project Summary), 1814 (Primary HTS)]. It counts as functional. The following applies: Homo sapiens.
The nature of assay [7]: Luminescence Cell-Based Dose Response HTS to Identify Activators of Luciferase Translation or Activity in H4 […] Cells. [Related pubchem assays: 1829 (Project Summary), 1814 (Primary HTS)]. Type of assay: functional.
The nature of assay [8]: Luminescence Cell-Based Dose Confirmation HTS to Identify Activators of 5'UTR Stem-Loop Driven Alpha-Synuclein mRNA Translation in H4 Neuroglioblastoma Cells. [Related pubchem assays: 1829 (Project Summary), 1814 (Primary HTS)]. It counts as functional.
Assay [9] is described as follows: Luminescence Cell-Based Dose Confirmation to Identify Activators of 5'UTR Stem-Loop Driven Alpha-Synuclein mRNA Translation in H4 Neuroglioblastoma Cells. [Related pubchem assays: 1829 (Project Summary), 1814 (Primary HTS)]. It counts as functional.
The target in assay [10] is T3, Oxysterols receptor LXR-beta (Homo sapiens, UniProt P55055).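 Also: Cell-based luminescence dose-response assay of agonist activity at LXR, run as a confirmatory counterscreen to a daf-12 agonist screen; HEK293 cells with Gal4-LXR fusion and GAL4-driven luciferase reporter; agonist potency from rising luciferase signal of a Gal4-LXR reporter.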
T3 sequence (P55055 whole entry): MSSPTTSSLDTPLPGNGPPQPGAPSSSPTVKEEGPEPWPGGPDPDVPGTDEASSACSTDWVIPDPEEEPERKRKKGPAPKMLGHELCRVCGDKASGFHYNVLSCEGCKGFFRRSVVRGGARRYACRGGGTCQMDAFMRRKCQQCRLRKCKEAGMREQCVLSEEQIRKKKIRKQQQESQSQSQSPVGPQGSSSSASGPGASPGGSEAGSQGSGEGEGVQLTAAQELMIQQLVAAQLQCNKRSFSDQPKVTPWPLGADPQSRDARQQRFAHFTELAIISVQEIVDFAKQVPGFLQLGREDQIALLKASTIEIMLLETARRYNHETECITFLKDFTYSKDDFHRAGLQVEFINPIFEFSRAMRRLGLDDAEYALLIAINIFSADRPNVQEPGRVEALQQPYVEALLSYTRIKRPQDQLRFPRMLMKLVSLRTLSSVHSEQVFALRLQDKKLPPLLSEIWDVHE
It counts as functional, cell-based.

A short description of assay [11]: Luminescence Cell-Based Dose Response to Identify Activators of 5'UTR Stem-Loop Driven Prion Protein mRNA Translation in H4-C Neuroglioblastoma Cells. [Related pubchem assays: 1829 (Project Summary), 1814 (Primary HTS)]. It counts as functional.
A short description of assay [12]: Luminescence Cell-Based Dose Response to Identify Activators of Luciferase Translation or Activity in H4-C Neuroglioblastoma Cells. [Related pubchem assays: 1829 (Project Summary), 1814 (Primary HTS)]. Type of assay: functional.
The target of assay [13] is E3 ubiquitin-protein ligase Mdm2 (Homo sapiens, UniProt Q00987). The assay can be described thus: enhancers of MDM2-luciferase reporter signal, concentration-effect titration, project on inhibitors of MDM2 ubiquitin ligase, cellular assay, luminescent readout, 384-well plate format (AID 1394).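 Also: MDM2 E3 inhibitors raise luminescence so EC50 is for signal enhancement.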 Type of assay: functional. A general note: Reporter assays use an easily measured gene product as a stand-in for the process of interest.

Assay [14] addresses T4, Mannose-6-phosphate isomerase (Homo sapiens, UniProt P34949).
T4 sequence (P34949 whole entry): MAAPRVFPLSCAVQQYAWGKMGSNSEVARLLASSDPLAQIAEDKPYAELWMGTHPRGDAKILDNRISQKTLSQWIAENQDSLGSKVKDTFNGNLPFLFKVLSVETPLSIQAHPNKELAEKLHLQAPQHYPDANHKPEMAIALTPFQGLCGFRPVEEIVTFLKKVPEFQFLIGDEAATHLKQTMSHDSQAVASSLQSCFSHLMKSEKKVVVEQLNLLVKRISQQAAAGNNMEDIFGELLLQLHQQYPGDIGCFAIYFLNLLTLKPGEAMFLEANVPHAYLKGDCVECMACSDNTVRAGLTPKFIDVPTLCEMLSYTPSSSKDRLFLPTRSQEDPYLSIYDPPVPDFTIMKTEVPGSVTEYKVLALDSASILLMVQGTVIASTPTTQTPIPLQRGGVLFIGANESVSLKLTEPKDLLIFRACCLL
The assay can be described thus: inhibitors of human PMI, primary screen, biochemical, fluorescence intensity, coupled assay (AID 1209).

The target in assay [15] is Heat shock 70 kDa protein 1A (Homo sapiens, UniProt P0DMV8). The assay can be described thus: Hsp70 inhibitors, SAR follow-up, biochemical, fluorescence polarization (AID 1072). For orientation: Polarisation of emitted light reports the rotation of a fluorescent probe.
Assay [16] deals with Heat shock cognate 71 kDa protein (Homo sapiens, UniProt P11142). The assay can be described thus: In Vitro Hsc70 Dose Response Fluorescence Polarization Assay. [Related pubchem assays: 1072 ].
In another assay the target is Cytochrome P450 2C19 (Homo sapiens, UniProt P33261). In words: qHTS Assay for Inhibitors and Substrates of Cytochrome P450 2C19. [Related pubchem assays: 410 ]. Type of assay: ADME. The following applies: read-out: Potency.
A further assay addresses Cytochrome P450 3A4 (Homo sapiens, UniProt P08684). The following applies: Potency.
A further assay concerns the target Nonstructural protein 1 (Influenza A virus, UniProt Q194T2). Type of assay: functional, Influenza A virus (A/California/07/2009(H1N1)).
Assay [17] addresses T5, Alkaline phosphatase, tissue-nonspecific isozyme (Homo sapiens, UniProt P05186).
T5 sequence (P05186 whole entry): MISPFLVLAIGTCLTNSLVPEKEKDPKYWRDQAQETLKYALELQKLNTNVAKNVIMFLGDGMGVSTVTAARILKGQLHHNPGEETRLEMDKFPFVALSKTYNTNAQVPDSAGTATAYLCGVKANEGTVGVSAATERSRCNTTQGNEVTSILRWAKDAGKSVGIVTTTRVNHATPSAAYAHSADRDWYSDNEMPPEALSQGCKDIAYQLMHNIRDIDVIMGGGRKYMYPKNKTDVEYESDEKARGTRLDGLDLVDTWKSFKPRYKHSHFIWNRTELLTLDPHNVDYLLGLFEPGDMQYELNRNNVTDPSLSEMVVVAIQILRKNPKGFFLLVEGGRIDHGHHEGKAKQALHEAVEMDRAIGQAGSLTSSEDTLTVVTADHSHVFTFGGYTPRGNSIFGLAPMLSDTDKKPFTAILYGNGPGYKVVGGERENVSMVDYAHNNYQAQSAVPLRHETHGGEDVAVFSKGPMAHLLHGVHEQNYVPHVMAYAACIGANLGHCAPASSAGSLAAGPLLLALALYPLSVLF

Activity calls are given as the source filed them.

Sequence of E3 ubiquitin-protein ligase Mdm2 (Q00987 whole entry): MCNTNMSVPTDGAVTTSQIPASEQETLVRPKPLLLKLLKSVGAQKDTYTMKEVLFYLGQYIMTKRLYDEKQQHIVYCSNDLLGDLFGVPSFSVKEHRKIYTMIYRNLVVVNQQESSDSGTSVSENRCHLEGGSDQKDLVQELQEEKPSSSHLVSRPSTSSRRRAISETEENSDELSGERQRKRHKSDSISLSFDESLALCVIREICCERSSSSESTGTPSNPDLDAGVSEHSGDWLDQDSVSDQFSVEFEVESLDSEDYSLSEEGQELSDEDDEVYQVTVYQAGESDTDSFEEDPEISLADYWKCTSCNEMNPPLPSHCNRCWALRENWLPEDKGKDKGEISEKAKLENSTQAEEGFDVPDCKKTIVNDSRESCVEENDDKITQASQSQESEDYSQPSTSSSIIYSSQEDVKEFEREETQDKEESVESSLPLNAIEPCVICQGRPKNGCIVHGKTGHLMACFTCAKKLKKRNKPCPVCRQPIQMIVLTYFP
Sequence of Ephrin type-A receptor 4 (Q03137 whole entry, the tested form may be a part): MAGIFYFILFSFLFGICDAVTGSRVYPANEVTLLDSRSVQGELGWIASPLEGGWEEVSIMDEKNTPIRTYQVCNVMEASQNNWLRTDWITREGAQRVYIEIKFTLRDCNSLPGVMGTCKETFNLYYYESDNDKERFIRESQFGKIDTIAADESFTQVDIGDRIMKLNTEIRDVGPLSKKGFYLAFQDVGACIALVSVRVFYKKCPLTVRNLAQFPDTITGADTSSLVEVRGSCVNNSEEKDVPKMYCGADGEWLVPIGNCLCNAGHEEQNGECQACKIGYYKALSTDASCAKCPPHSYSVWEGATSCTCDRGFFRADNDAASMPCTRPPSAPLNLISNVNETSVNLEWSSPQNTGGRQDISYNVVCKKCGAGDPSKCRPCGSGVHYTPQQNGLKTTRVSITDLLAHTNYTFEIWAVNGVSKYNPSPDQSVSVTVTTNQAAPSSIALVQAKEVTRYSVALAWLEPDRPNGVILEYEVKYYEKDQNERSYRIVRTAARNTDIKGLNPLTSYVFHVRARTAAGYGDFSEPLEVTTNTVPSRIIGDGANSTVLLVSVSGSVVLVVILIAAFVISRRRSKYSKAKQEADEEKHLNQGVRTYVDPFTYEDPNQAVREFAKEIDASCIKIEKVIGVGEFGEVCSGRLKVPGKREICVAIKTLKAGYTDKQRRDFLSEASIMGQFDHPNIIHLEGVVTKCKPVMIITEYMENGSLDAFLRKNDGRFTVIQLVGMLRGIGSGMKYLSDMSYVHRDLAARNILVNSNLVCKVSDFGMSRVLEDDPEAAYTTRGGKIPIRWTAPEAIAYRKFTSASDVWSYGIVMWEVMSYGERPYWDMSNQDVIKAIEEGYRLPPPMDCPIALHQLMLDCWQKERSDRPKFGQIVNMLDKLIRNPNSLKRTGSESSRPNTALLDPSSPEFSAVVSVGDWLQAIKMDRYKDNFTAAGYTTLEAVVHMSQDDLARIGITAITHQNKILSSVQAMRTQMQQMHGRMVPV
Sequence of Heat shock 70 kDa protein 1A (P0DMV8 whole entry): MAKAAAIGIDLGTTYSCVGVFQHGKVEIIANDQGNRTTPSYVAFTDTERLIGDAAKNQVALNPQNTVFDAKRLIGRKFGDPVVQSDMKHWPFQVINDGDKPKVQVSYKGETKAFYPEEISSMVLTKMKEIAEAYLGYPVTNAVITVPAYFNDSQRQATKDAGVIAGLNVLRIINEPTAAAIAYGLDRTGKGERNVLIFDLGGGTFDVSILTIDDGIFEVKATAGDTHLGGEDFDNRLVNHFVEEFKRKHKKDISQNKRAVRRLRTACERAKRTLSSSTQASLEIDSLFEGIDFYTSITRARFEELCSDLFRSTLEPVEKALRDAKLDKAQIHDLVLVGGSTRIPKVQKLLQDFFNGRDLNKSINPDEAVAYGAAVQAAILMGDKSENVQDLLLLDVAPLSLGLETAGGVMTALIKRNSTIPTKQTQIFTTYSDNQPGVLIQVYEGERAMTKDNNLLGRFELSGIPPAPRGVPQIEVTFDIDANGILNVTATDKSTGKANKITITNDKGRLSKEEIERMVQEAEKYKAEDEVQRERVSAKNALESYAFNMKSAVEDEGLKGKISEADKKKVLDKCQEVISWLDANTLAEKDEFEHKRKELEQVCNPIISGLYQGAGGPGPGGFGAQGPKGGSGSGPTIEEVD
Sequence of Nonstructural protein 1 (Q194T2 whole entry): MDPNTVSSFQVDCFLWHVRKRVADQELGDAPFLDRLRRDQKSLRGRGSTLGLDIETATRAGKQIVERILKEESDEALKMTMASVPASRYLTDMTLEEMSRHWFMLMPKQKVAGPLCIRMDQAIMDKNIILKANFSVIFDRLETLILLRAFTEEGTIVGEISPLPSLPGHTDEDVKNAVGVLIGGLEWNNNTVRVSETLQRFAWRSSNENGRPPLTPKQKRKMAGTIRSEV
Sequence of Cytochrome P450 2C9 (P11712 whole entry): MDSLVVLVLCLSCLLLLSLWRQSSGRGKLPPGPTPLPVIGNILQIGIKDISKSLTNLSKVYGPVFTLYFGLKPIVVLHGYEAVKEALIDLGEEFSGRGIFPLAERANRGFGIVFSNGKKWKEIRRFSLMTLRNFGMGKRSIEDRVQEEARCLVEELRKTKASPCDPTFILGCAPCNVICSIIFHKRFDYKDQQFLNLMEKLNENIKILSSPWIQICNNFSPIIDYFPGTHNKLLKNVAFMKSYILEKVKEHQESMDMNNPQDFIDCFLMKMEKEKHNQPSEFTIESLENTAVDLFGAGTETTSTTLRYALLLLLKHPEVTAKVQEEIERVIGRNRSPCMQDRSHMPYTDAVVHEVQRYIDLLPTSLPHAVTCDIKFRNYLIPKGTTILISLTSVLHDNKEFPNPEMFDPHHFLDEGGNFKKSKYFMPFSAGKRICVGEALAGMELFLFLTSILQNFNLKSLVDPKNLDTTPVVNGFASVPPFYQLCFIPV
Sequence of Cytochrome P450 2C19 (P33261 whole entry): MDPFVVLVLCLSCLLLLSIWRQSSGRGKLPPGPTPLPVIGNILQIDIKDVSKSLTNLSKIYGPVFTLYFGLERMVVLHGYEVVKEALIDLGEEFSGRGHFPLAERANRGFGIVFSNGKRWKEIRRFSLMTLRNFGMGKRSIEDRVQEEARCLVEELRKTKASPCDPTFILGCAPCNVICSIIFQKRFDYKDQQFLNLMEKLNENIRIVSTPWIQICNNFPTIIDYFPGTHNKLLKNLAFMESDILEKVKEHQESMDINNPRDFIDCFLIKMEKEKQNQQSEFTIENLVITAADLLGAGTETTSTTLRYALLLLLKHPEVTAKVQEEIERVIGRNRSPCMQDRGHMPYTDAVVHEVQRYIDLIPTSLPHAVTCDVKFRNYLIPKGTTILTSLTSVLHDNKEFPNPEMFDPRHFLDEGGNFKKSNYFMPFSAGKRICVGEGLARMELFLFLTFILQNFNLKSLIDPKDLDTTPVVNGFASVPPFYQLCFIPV
Sequence of Cytochrome P450 3A4 (P08684 whole entry): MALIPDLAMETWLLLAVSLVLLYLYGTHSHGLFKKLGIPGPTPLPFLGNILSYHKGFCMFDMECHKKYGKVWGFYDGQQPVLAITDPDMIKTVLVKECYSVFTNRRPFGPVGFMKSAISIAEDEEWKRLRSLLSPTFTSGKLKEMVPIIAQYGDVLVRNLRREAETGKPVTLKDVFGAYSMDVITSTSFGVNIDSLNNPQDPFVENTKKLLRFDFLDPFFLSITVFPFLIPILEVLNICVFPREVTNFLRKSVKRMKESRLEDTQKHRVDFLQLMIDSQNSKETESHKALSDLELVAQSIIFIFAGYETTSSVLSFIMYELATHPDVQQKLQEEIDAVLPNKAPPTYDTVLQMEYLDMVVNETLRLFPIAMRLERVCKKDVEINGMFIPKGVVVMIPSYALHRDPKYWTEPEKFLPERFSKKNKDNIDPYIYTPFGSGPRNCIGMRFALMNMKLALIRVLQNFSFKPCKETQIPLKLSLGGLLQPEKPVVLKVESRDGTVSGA
Sequence of Heat shock cognate 71 kDa protein (P11142 whole entry): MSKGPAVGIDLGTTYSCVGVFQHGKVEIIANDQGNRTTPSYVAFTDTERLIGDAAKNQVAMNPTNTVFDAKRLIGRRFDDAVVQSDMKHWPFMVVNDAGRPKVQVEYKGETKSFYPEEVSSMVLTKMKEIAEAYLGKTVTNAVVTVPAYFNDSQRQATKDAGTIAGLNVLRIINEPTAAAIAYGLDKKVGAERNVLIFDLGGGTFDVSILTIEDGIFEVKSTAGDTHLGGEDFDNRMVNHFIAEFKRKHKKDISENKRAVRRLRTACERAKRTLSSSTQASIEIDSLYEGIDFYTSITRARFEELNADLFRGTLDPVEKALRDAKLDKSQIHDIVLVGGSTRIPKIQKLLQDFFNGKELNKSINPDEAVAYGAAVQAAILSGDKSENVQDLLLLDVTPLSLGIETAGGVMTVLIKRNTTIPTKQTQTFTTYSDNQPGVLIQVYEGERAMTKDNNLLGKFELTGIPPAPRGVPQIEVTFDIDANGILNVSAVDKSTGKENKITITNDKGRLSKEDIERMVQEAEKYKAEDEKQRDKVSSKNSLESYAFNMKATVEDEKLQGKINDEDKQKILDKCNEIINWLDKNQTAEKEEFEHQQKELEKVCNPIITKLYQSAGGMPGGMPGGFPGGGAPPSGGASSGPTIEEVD

As for `COc1ccc2sc3ccccc3c(=O)c2c1OC`, on Cytochrome P450 2C9, the AC50 was 28.2 µM (inconclusive). The IC50 (usually the point on the concentration scale where inhibition reaches its midpoint) on Ephrin type-A receptor 4 is on record as > 100 µM (not active).
Regarding `O=S(=O)(Nc1nc2ccccc2nc1Nc1cccc(S(=O)(=O)N2CCCCC2)c1)c1ccccc1`, the AC50 was 8.16 µM (active) in assay [1], 12 µM (active) in [3] and 23.9 µM (active) in [4]. The concentration for half-maximal inhibition (IC50) is 12 µM (active) in [2], 5.7 µM (active) in assay [5] and 91.9 µM (active) at Aminopeptidase N.
As to `COc1ccc(C(=O)/C=C/c2ccc(OCc3ccccc3)cc2)cc1CSCC(=O)O`, in [5], the IC50 is 42.8 µM (active). Besides, the AC50 in assay [6] is 5.79 µM (active).
`O=C(Nc1ccccc1)Nc1cccc2nsnc12`: the EC50 – broadly, the concentration at which the effect is half-maximal – in the assay on H4 is 1.37 µM (active); in assay [7], < 100 nM (inconclusive); in assay [8], 190 nM (active); in assay [9] it was > 12 µM (not active); in [10], > 67.5 µM (inactive); in assay [11], 452 nM (active). The values for the EC50 (in the assay “cells”; in [12]) were > 67.5 µM (inactive) and 739 nM (active), respectively.
On to `Cn1c(=O)[nH]c(=O)c2c1nc(Br)n2CCCc1ccccc1`, for which the EC50 in assay [13] was 46.5 µM (not active).
On to `Cc1cccc(NC(=O)C2CC(=O)n3cnnc3S2)c1` (centres undefined), for which, in assay [14], the half-inhibitory concentration (IC50) is > 50 µM (not active).
As for `O=C1/C(=C\c2ccc(-c3ccccc3Cl)o2)SC(=S)N1CC1CCCO1` (centres undefined), the IC50 on Ephrin type-A receptor 4 was 0.4 µM (active).
In the case of `O=C(Nc1ccc(Cl)cc1)c1ccc(-n2cccn2)c([N+](=O)[O-])c1`, the EC50 in [13] is 8.84 µM (not active).
Consider `O=C1C=C2CC3(O)CCc4c(ccc(O)c4O)C3=C2C=C1O` (centres undefined), for which the IC50 in [15] is 34.2 µM (active); in assay [16] it was > 100 µM (not active).
For `CC1CCN(C(=O)CSc2nc3ccccc3s2)CC1`, the EC50 in the assay on H4 was 20.3 µM (active); in [7] it was < 100 nM (inconclusive); in assay [8], 185 nM (active); in assay [9], 1.69 µM (active); in assay [11], 2070 nM (active); in assay [12] it was 482 nM (active).
With `COC(=O)NC(c1cccs1)C(C(C)=O)C(=O)OC` (centres undefined), the AC50 at Cytochrome P450 2C19 and at Cytochrome P450 3A4 was 3.98 µM (inconclusive) throughout.
`Cc1c(C(=O)N(C)C)sc2[nH]c(-c3ccccn3)nc(=O)c12`: at Nonstructural protein 1, the IC50 was 13.1 µM (active). In addition, the EC50 in assay [17] was 63.6 µM (not active).
